Source: patent US9623063B2, “Extracts from Ajuga reptans cell lines, their preparation and use” (I.R.B. ISTITUTO DI RICERCHE BIOTECNOLOGICHE S.r.l., priority 2005, dated 2017)
Like-named read-outs stand apart in the source and are kept apart here.

What was measured:
platelets = assay: ADP induced platelet aggregation-disaggregation in platelet rich plasma; assay type: cell-based, rabbit; conditions: for Control disaggregation: 10 minutes after ADP; for Control disaggregation / Control aggregation / Latency period: Mean ± SD (n = 6); for Control aggregation: ADP 10 μM
Experimental: Platelet enriched rabbit plasma has been used to assess the platelet anti-aggregating and disaggregating properties of Ajuga reptans Extracts compared with teupolioside and isoteupolioside. Platelet rich plasma has been obtained from rabbit venous blood by mixing it with a 3.8% sodium citrate solution (9:1 v/v). The solution has then been centrifuged at 460×g for 20 minutes. The supernatant has been collected and immediately used for the aggregation assays. Platelet aggregation has been recorded using a Chronolog “Ionised calcium platelet aggregometer” (Chrono-log Co., USA). All measurements have been performed at 37° C. with continuous stirring. One milliliter of the platelet suspension (in the presence or absence of the test substances) has been added to the cuvettes and incubated for five minutes to equilibrate the cells to 37° C. Then 10 μl of a solution of ADP (final concentration—10 μM) has been added and the luminous transmittance continuously recorded. The results are expressed as the DT/DTK ratio, where DTK and DT are the luminous transmittance values, in the absence and presence of extract respectively.
Platelet disaggregation (the disappearance of pre-formed aggregates) has been determined using the same luminous transmittance curve 10 minutes following the addition of ADP. The results are expressed as the DR/DRk ratio, where DRk and DR, are the luminous transmittance in the absence and presence of extract. The test substances, diluted in physiological solution (isotonic saline) (pH 7.4) are pre-incubated with the platelet rich plasma (1:10 v/v) for 5-40 minutes. The aggregation measurements have then been performed. Physiological solution carrier has been added to the control samples (1:10 v/v).

[1] = molecular target: T1, 5 alpha reductase, type II (Homo sapiens, UniProt P31213); assay: Type II 5 alpha reductase inhibition ([14C] testosterone conversion); assay type: biochemical
T1 construct: made in house; host or cells: genetically modified yeast
T1 sequence (P31213 1-254): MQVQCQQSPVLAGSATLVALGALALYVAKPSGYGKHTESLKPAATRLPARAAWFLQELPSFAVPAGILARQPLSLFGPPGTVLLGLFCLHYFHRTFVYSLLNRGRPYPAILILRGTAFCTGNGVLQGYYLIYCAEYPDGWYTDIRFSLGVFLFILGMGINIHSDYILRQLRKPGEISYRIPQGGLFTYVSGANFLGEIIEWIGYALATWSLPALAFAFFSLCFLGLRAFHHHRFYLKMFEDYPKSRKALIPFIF
Text: Determination of the 5 alpha reductase inhibitory activities by Ajuga reptans extracts in comparison to Serenoa repens extracts. Said determination has been performed using enzymes (5 alpha reductase, type I and type II) produced by genetically modified yeast. Enzyme activities have been determined in the presence of Ajuga reptans extracts, teupolioside, isoteupolioside and Serenoa repens extracts.
Determination of the type II 5 alpha reductase activity has been performed in an analogous manner to that just described, with the exception of a different pH value for the 0.1 M Tris-citrate buffer (pH 5.0).
In both assays, the steroids have been extracted using 5 ml of methylene chloride. The extracts have then been dried under a stream of nitrogen and the dried residues obtained have been dissolved in 20 μl of a chloroform-methanol mixture (2:1 v/v). An aliquot of said mixture has been deposited on the surface of a silica gel TLC plate. […] For quantification of the results, the spots have been scraped from the TLC plate and extracted with 2 ml of ethyl acetate. The extracts obtained have been analysed, using scintillation fluid, with the aid of a Wallach β-counter. The enzyme activity has been calculated from the percentage conversion (C %) of the substrate into final product: C%=[counted product/(counted substrate+product)]×100.

[2] = Metal chelation, spectrophotometric (Cu2+); assay type: physicochemical
Text: (§1) The chelating activities of Ajuga reptans extracts in relation to Fe^2+, Fe^3+, Cu^2+ and Ni^2+ metal ions has been determined by means of spectrophotometric measurements using a Shimadzu 1770 UV spectrophotometer. The activities of chelating agents depends on the association constant (equilibrium) of their reactions with the metals according to the following reaction:
(§2) [formula] wherein Keq is the equilibrium constant equal to the ratio of concentrations at equilibrium of a complex and a product of equilibrium concentrations of metal ions and a chelator:
(§3) The method used for determining chelating activities is well documented in the literature (Korkina L G, Afarras'er I B. Antioxidant and chelating properties of flavonoids. Adv. Pharmacol., 1997, 38:151-63). The results are expressed as Keq (M^−1) calculated for a pure phenylpropanoid. This way the chelating activity against ferrous (Fe II), ferric (Fe III), copper (Cu II) and nickel ions has been calculated.

[3] = Metal chelation, spectrophotometric (Fe2+); assay type: physicochemical
Text: as §1, §2, §3

[4] = Metal chelation, spectrophotometric (Fe3+); assay type: physicochemical
Text: as §1, §2, §3

[5] = Metal chelation, spectrophotometric (Ni2+); assay type: physicochemical
Text: as §1, §2, §3

[6] = Hydroxyl radical scavenger activity (Fenton reaction, luminol chemiluminescence); assay type: biochemical
Text: Ajuga reptans Extracts 1 and 2, prepared as described in examples 1 and 2, and isoteupolioside have been used to assess in vitro antioxidant action with specific oxygen radical generating systems such as the superoxide anion (O2^−), the hydroxyl radical (HO^−), the peroxynitrite radical (ONOO^−) and the inhibition of lipid peroxidation. The superoxide anion has been measured by a chemiluminescent assay based on the hypoxanthine (HPX)/xanthine oxidase (XOD) reaction using the Lumimax Superoxide Anion Detection Kit (Stratagene, La Jolla, Calif., USA) and following the manufacturer's instructions. Hydroxyl radical scavenger activity has been measured by means of the Fenton reaction for the production of hydroxyl radicals and chemiluminescent dosage (using a Victor^3 chemiluminometer, Wallac, Finland) with luminol. Peroxynitrite ions have been determined by means of dosage with a spontaneous generator of peroxynitrites (3-morpholinosidnonimine hydrochloride; SIN-1) and a stable reagent for the nitroxyl ions (2-(4-carboxyphenyl)-4,4,5,5-tetramethylimidazoline-1-oxyl-3-oxide potassium salt PTIO spin trap) then dosed by means of electron spin resonance (ESR) using a Nippon Denshi JES-FR30. Lipid peroxidation has been generated using Fe^2+ induced-oxygen reactive species, and detected using thiobarbituric acid in accordance with Buege, J A & Aust, S D: Microsomal lipid peroxidation (Methods Enzymol.
The Extract 1 and the Extract 2 set forth in Table 4 are derived from Ajuga reptans cell cultures comprising the phenylpropanoids at 90% and 54%, respectively. The results are expressed as the concentration inhibiting 50% of activity (IC50), means of 6 independent assays.

[7] = calculated for a pure phenylpropanoid

C[C@@H]1O[C@@H](O[C@@H]2[C@@H](O)[C@H](OCCc3ccc(O)c(O)c3)O[C@H](CO)[C@H]2OC(=O)/C=C/c2ccc(O)c(O)c2)[C@H](O[C@@H]2O[C@H](CO)[C@H](O)[C@H](O)[C@H]2O)[C@H](O)[C@H]1O [Teupolioside, teupolioside]
Effect on platelet aggregation, in words (platelets): modest inhibiting effect on platelet aggregation, only at 1 mg/ml concentration | Control disaggregation (platelets; 0.001 mg/ml): 105 ± 5 | Control aggregation (platelets; 0.001 mg/ml): 121 ± 6 | Latency period (platelets; 0.001 mg/ml): 101 ± 3 | Control disaggregation (platelets; 0.01 mg/ml): 113 ± 10 | Control aggregation (platelets; 0.01 mg/ml): 110 ± 10 | Latency period (platelets; 0.01 mg/ml): 95 ± 5 | Control disaggregation (platelets; 0.1 mg/ml): 124 ± 15 | Control aggregation (platelets; 0.1 mg/ml): 114 ± 10 | Latency period (platelets; 0.1 mg/ml): 94 ± 4 | Control disaggregation (platelets; 1.0 mg/ml): 100 ± 10 | Control aggregation (platelets; 1.0 mg/ml): 68 ± 9 | Latency period (platelets; 1.0 mg/ml): 66 ± 10 | IC50 ([1]; second column of Table 9, pH 5.0, 5 μM testosterone, read-out: Type II 5 alpha reductase inhibition (IC50) (converted)): 30.5 µM | Cu^2+ (Keq, M^−1) [2, 7]: 80000 ± 30000 M⁻¹ | Fe^2+ (Keq, M^−1) [3, 7]: 350000 ± 20000 M⁻¹ | Fe^3+ (Keq, M^−1) [4, 7]: 430000 ± 90000 M⁻¹ | Ni^2+ (Keq, M^−1) [5, 7]: 2658 ± 365 M⁻¹ | Hydroxyl radial (IC50) ([6]; means of 6 independent assays): 1.6 µg/mL

CC1OC(OC2C(O)C(COC(=O)C=Cc3ccc(O)c(O)c3)OC(OCCc3ccc(O)c(O)c3)C2O)C(OC2OC(CO)C(O)C(O)C2O)C(O)C1O (centres unmarked) [Isoteupolioside, isoteupolioside]
Platelet disaggregation test, activity in words (platelets): activity similar to teupolioside | IC50 [1]: 33 µM | Cu^2+ (Keq, M^−1) [2]: 70000 ± 20000 M⁻¹ | Fe^2+ (Keq, M^−1) [3]: 340000 ± 10000 M⁻¹ | Fe^3+ (Keq, M^−1) [4]: 420000 ± 110000 M⁻¹ | Ni^2+ (Keq, M^−1) [5]: 2631 ± 373 M⁻¹ | Hydroxyl radial (IC50) [6]: 1.04 µg/mL
